# Source: patent US11040968B2, “Pyridine derivative as ASK1 inhibitor and preparation method and use thereof” (FUJIAN COSUNTER PHARMACEUTICAL CO., LTD., priority 2017, dated 2021)
# Where two headings read alike, the source gives them in different places.
# Legend:
# ASK1/MAP3K5 = ASK1/MAP3K5 (Homo sapiens (Human), UniProt Q99683); assay: Enzyme activity: ASK1 kinase 33P-ATP filter-binding assay with MBP substrate; assay type: biochemical
# Experimental: Experimental Example 1: Enzyme Activity
# Primary reaction buffer solution: 20 mM Hepes (pH 7.5), 10 mM MgCl2, 1 mM EGTA, 0.02% Brij35, 0.02 mg/ml BSA, 0.1 mM Na3VO4, 2 mM DTT, 1% DMSO
# Treatment of the Compound:
# The tested compounds were formulated into a 10 mM stock solution in DMSO, diluted in 3-fold gradient for a total of 10 concentrations, and placed in a 384-well plate (Cyclic Olefin Copolymer LDV Echo®).
# Kinase Name: ASK1/MAP3K5 (Invitrogen, Carlsbad, Calif.)
# Type: Recombinant Human Full Length Protein, GST-tagged
# Final reaction concentration of the enzyme: 20 nM
# Substrate: Myelin basic protein, MBP (Active Motif, Carlsbad, Calif.)
# Final reaction concentration of the substrate: 20 μM
# 1. The substrate was dissolved in a freshly prepared primary reaction buffer solution,
# 2. The desired coenzyme factor was added to the above substrate solution,
# 3. The kinase was added to the substrate solution and mix gently,
# 4. The solution tested compound in DMSO was added to the kinase reaction solution and incubated at room temperature for 20 minutes.
# 5. The reaction was initiated by adding ^33P-ATP (specific activity 10 μCi/μL) to the reaction solution.
# 6. Incubated at room temperature for 2 hours.
# 7. A small portion of the reactants were placed onto the P-81 ion exchange filter paper.
# 8. The filter paper was washed three times with 0.75% phosphate buffer to wash away unbound phosphate, and then dried.
# 9. The radioactivity remaining on the filter paper was determined,
# 10. The data for the kinase activity was expressed as the ratio of the kinase activity remaining in the test sample to the kinase activity in the vehicle (DMSO).
# 11. IC50 values and curve fitting were collected by Prism (GraphPad software).
# [1] = Pharmacokinetic characteristics study in mice (plasma, LC-MS/MS); assay type: in vivo; settings: C57BL/6 male mice
# Experimental: Experimental Example 2: Pharmacokinetic Characteristics Study
# C57BL/6 male mice were used in this study. The drug concentration in the plasma of mice subjected to intravenous or oral administration of the test compound at different time points were quantitatively determine by LC/MS/MS method, respectively, in order to evaluate the pharmacokinetic characteristics of the tested drugs in mice.
# A clear solution of the test compound was injected into C57BL/6 mice via the tail vein (overnight fasting, 7-10 weeks old), and the test compound was intragastrically administered to C57BL/6 mice (overnight fasting, 7-10 weeks old). 30 μL of the blood was collected from the jugular vein or the tail vein of the animals 0.0833, 0.25, 0.5, 1, 2, 4, 6, 8 and 24 hours after administration, and placed in the anticoagulant tube containing EDTA-K2, followed by centrifugation at 4° C. for 15 minutes to collect the plasma. The plasma concentration was determined by LC-MS/MS. The pharmacokinetic parameters were calculated by the non-compartment model linear logarithmic trapezoidal method using WinNonlin™ Version 6.3 (Pharsight, Mountain View, Calif.) pharmacokinetic software.
# [2] = recombinant human full length GST-tagged ASK1 20 nM, MBP 20 μM, 33P-ATP, 2 hours room temperature, read-out: IC50
# [3] = ASK1 enzyme activity, class symbols, read-out: IC50 value
# ASK1/MAP3K5, sequence (Q99683 whole entry): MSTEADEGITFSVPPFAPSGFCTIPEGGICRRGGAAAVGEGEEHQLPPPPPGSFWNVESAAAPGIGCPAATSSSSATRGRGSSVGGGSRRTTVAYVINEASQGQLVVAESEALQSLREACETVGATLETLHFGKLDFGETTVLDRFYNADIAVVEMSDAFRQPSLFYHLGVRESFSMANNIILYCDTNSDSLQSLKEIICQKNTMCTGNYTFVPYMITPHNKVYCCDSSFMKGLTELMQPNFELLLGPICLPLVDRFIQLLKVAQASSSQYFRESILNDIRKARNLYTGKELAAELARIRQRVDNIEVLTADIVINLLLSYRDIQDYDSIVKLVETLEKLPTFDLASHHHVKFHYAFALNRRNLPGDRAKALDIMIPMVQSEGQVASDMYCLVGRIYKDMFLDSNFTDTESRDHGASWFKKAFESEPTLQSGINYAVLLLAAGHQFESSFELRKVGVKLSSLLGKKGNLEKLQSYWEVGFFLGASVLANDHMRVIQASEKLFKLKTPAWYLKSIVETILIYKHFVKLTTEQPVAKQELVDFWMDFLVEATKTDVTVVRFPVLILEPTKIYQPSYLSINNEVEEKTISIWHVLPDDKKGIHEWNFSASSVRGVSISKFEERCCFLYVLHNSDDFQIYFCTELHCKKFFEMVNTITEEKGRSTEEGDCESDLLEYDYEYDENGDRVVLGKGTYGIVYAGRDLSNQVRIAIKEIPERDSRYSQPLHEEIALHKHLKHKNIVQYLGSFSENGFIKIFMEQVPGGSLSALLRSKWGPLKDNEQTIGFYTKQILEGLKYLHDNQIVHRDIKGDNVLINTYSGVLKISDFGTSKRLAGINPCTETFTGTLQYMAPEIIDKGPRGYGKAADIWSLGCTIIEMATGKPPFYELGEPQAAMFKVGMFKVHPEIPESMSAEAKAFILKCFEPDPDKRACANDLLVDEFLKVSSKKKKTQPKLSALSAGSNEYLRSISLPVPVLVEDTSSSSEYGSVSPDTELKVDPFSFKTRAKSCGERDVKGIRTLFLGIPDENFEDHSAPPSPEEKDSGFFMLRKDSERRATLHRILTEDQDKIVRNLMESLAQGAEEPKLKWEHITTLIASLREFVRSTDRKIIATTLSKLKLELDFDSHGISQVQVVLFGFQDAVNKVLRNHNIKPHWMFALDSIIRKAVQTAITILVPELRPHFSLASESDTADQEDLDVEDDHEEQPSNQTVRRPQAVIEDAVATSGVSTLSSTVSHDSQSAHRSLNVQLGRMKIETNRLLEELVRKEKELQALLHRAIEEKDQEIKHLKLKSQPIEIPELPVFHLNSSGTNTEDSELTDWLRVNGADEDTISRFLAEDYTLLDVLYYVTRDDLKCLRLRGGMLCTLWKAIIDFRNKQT
SMILES,IC50 (ASK1/MAP3K5; [2]),IC50 (ASK1/MAP3K5; [3]),Exposure ([1]; intravenous or oral (intragastric) administration),"bioavailability ([1]; mouse, intragastric vs intravenous administration)"
COCCOc1cc(F)c(C(=O)Nc2cccc(-c3nnc4n3CCCC4)n2)cc1-n1cnc(C2CC2)c1 [WX007],16.6 nM,–,–,–
Cc1cc(F)c(C(=O)Nc2cccc(-c3nnc4n3CCCC4)n2)cc1-n1cnc(C2CC2)n1 [WX005],35.3 nM,≤ 100 nM,–,–
O=C(Nc1cccc(-c2nnc3n2CCCC3)n1)c1cc(-n2cnc(C3CC3)c2)c(OCCCF)cc1F [WX013],7.93 nM,–,–,–
Cc1cc(F)c(C(=O)Nc2cccc(-c3nnc4n3CCCC4)n2)cc1-n1cc(C2CC2)nn1 [WX003],943 nM,> 100 nM,–,–
O=C(Nc1cccc(-c2nnc3n2CCCC3)n1)c1cc(-n2cnc(C3CC3)c2)c(N2CCOCC2)cc1F [WX015],10.1 nM,–,–,–
O=C(Nc1cccc(-c2nnc3n2CCCC3)n1)c1cc(-n2cnc(C3CC3)c2)c(O)cc1F [WX008],5.44 nM,–,–,–
Cc1cc(F)c(C(=O)Nc2cccc(-c3nnc4n3CCCC4)n2)cc1-n1cnc(C2CC2)c1 [WX002],5.6 nM,≤ 100 nM,408.566 µM·h,156%
O=C(Nc1cccc(-c2nnc3n2CCCC3)n1)c1cc(-n2cnc(C3CC3)c2)c(OCCF)cc1F [WX012],7.04 nM,–,–,–
Cc1cc(F)c(C(=O)Nc2cccc(-c3nnc4n3CCCC4)n2)cc1-n1nnc(C2CC2)n1 [WX004],> 1000 nM,> 100 nM,–,–
CC1(COc2cc(F)c(C(=O)Nc3cccc(-c4nnc5n4CCCC5)n3)cc2-n2cnc(C3CC3)c2)COC1 [WX010],7.2 nM,–,–,–
O=C(Nc1cccc(-c2nnc3n2CCCC3)n1)c1cc(-n2cnc(C3CC3)c2)c(-c2cccnc2)cc1F [WX006],19.2 nM,–,–,–
CN(C)c1cc(F)c(C(=O)Nc2cccc(-c3nnc4n3CCCC4)n2)cc1-n1cnc(C2CC2)c1 [WX014],10.7 nM,–,–,–
Cc1cc(F)c(C(=O)Nc2cccc(-c3nnc4n3CCC4)n2)cc1-n1cnc(C2CC2)c1 [WX001],1.82 nM,≤ 100 nM,–,–
O=C(Nc1cccc(-c2nnc3n2CCCC3)n1)c1cc(-n2cnc(C3CC3)c2)c(OCC2COC2)cc1F [WX011],7.61 nM,–,–,–
Cc1cc(F)c(C(=O)Nc2cccc(-c3nnc4n3CCCC4O)n2)cc1-n1cnc(C2CC2)c1 (stereo not shown) [WX016],4.12 nM,–,–,–
